In article PMC5556109, “A combinatorial approach for the discovery of cytochrome P450 2D6 inhibitors from nature” (Scientific Reports, 2017):
Where two headings read alike, the source gives them in different places.

How the values were obtained:
[1] = test system: P450-Glo detection reaction (unspecific esterase and modified firefly-luciferase); test: P450-Glo detection reaction control (luciferin-EGE, esterase, luciferase, test compound, no CYP2D6)
Source text: (§1) This detection-reagent consists of i) a detergent that stops the CYP2D6 enzyme reaction, ii) an unspecific esterase that continuously releases luciferin and iii) a modified firefly-luciferase, thus a stable luminogenic signal is generated, which can be quantified by a luminometer (Fig. 1). The detection reaction is incorporated in the P450-Glo CYP2D6 inhibition assay. However, we implemented additional controls for unspecific interactions of the test compounds with the detection reaction. For this purpose, the previously established luminescence quenching control reaction reported by Modarai et al.[9] was adapted to our requirements with modifications for the use of larger sample volumes. In addition, Modarai et al. converted ME-luciferin-EGE to luciferin in the absence of a test compound and then evaluated the inhibition of the luciferase reaction.We conducted the control step by using pure luciferin-EGE, esterase, luciferase and a test compound in the absence of CYP2D6 (Supplementary Table S4).
(§2) The quantification of the P450-Glo detection reaction was performed by subtracting the background values prior to calculating the percentage of total luminescence (% TL) based on the total luminescence obtained from the solvent control (set to 100%).
(§3) We then added 12.5 µl 4× reaction mixture (5 µl 1.5 mM luciferin-EGE stock solution, 500 µl 1 M KPO4 buffer and 745 µl luciferase free water) to the wells. Finally, 25 µl of the 2× NADPH regeneration system was added. In order to initiate the detection reaction, 50 µl of the reconstituted luciferin detection reagent containing the esterase was added to the samples, positive and solvent control wells. This step was followed by 20 minutes incubation in the dark for signal stabilization. In the wells reserved for background luminescence, luciferase-free water was added. Measurements were performed on a Tecan infinite F200 PRO plate reader on two independent days (n = 2) at minimum.
(§4) Raw data obtained from Tecan infinite F200 PRO plate reader was processed by calculating total luminescence (% of untreated control) by applying the formula: raw data − (background luminescence) * 100/mean of negative control.
(§5) A one-way ANOVA followed by Dunnett’s multiple comparisons test was performed. […] A p-value of < 0.05 was used to indicate significance.

CYP2D6 [2] = target: T1, CYP2D6 (Homo sapiens, UniProt P10635); test: P450-Glo CYP2D6 inhibition assay (bioluminescence-based; pre-screen at 100 µM and IC50 determination); conditions: for classification of CYP2D6 inhibition (actives / weak actives / inactives): ranked by IC50, inactives from pre-screen at 100 µM
T1 sequence (P10635 whole entry): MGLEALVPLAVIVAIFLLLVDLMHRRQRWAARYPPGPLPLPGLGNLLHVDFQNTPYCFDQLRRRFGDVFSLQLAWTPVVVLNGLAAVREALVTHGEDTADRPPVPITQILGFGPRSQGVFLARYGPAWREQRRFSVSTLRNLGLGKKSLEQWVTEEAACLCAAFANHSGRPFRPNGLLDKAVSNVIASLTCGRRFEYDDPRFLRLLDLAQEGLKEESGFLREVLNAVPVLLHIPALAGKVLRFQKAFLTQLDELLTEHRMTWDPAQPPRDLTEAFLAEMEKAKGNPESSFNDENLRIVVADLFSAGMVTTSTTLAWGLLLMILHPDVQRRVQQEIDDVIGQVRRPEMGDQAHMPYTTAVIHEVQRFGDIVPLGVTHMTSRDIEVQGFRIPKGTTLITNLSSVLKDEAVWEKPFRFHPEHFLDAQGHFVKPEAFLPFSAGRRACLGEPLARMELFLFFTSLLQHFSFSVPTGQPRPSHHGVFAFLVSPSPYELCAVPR
Procedure: (§6) Their CYP2D6 inhibitory potential was determined at a concentration of 100 µM in a final reaction volume of 50 µl. […] All compounds were dissolved in DMSO and the concentration thereof in the final reaction volume was 1%, according to the limitations indicated in the manufacturer’s protocol. […] To take into account the background luminescence, which may derive from a non-enzymatic conversion of ME-luciferin-EGE to luciferin, we included a ‘minus P450’ control that contained no CYP2D6 enzyme. In order to quantify CYP2D6 activity, we subtracted background values prior to calculating the percentage of total luminescence (% TL) obtained from the solvent control (set to 100%). Low % TL indicates low CYP2D6 activity.
(§7) In the three minus P450 control wells, 12.25 µl of the 4× reaction mixture was added. […] The plate was incubated for 10 minutes. The CYP2D6 enzyme reaction was initiated by the addition of 25 µl of 2× NADPH regeneration system (2.6 mM NADP^+, 6.6 mM glucose-6-phosphate, 6.6 mM MgCl2 and 0.8 U/ml glucose-6-phosphate dehydrogenase buffered in 0.1 mM sodium citrate at pH 5.5; Promega). After 45 minutes incubation, the enzyme reaction was stopped by the addition of 50 µl of the luciferin detection reagent, which contained also the esterase for the generation of the luminescence signal. The plate was incubated in the dark for 20 minutes in order to stabilize the signal measured by a Tecan infinite F200 PRO plate reader. […] The maximum allowed DMSO concentration in the final reaction mix was 1% according to the manufacturer’s protocol. The experiment was performed at room temperature and under prevention of excessive UV-light at minimum on two independent days (n = 2).
(§8) Concentration-dependent CYP2D6 inhibition assays were performed by preparing a 5-step dilution series of the 400 µM compound solutions. […] After this dilution step, 12.5 µl of each dilution was transferred to the assay plate. The assay was performed as described above. The DMSO concentration was kept constant for all concentrations with a maximum of 1%. The experiments were performed on three independent experimental days (n = 3).
as §4

CYP2D6 [3] = target: T1, CYP2D6; test: in vitro; conditions: recombinant enzyme, pH 7.4
Procedure: as §6, §7, §8, §4

CYP2D6 [4] = target: T1, CYP2D6; conditions: recombinant enzyme
Procedure: as §6, §7, §8, §4

[5] = test system: P450-Glo detection reaction (unspecific esterase and modified firefly-luciferase)
Source text: as §1, §2, §3, §4, §5

firefly-luciferase = conditions: cited from earlier work
CYP2D6 [6] = test system: CYP2D6; parameters: method as in earlier work; conditions: ME-luciferin-EGE as CYP2D6 substrate; cited from earlier work
CYP2D6 [7] = conditions: Supplementary Table S2, supplementary reference list, cited from earlier work; for IC50: read-out: Inhibitory potency IC50
CYP2D6 [8] = test: CYP2D6 inhibition of virtual hits already reported in the literature; conditions: authors' classification of the literature value, Supplementary Table S2
Source text: the hits according to non-available CYP2D6 inhibition data, plant origin and availability. The

COC(=O)C1=CO[C@@H](C)[C@@H]2CN3CC[C@@]4(C(=O)Nc5ccccc54)[C@@H]3C[C@H]12 [Compound 2, Isopteropodine]
P450-Glo Detection Reaction MEAN Diff. (inhibition of the detection reaction) ([1]; 50 µM test compound, difference to DMSO 1% control): 7.57% | P450-Glo Detection Reaction MEAN (total luminescence) ([1]; 50 µM test compound, no CYP2D6, DMSO control = 100): 92.43 % TL | p < 0.05 (significant inhibition of the P450-Glo detection reaction) ([1]; 50 µM, one-way ANOVA, Dunnett's test vs DMSO control): Yes | IC50 (CYP2D6 [2]): 89.1 µM | total luminescence in CYP2D6 inhibition pre-screen (CYP2D6 [2]; 100 µM test compound, solvent control = 100%, low % TL = low CYP2D6 activity): 43.22 % TL | classification of CYP2D6 inhibition (actives / weak actives / inactives) (CYP2D6 [2]): weak actives | inhibition at 100 µM (CYP2D6 [3]): 56.8%

COc1ccc(Cc2nccc3cc(OC)c(OC)cc23)cc1OC [Compound 6, Papaverine]
IC50 (CYP2D6 [2]): 7.02 µM | classification of CYP2D6 inhibition (actives / weak actives / inactives) (CYP2D6 [4]): actives (key: actives: those compounds were classified as active, which exhibited CYP2D6 IC50 values up to 10 µM; inactives showed less than 50 % total luminescence at a concentration of 100 µM) | P450-Glo Detection Reaction MEAN (total luminescence) [5]: 82.48 % TL

CN1Cc2c(ccc3c2OCO3)[C@@H]2[C@H]1c1cc3c(cc1C[C@@H]2O)OCO3 [Compound 21, (+)-Chelidonine]
IC50 (CYP2D6 [2]): 0.0225 µM | classification of CYP2D6 inhibition (actives / weak actives / inactives) (CYP2D6 [4]): actives (key: actives: those compounds were classified as active, which exhibited CYP2D6 IC50 values up to 10 µM; inactives showed less than 50 % total luminescence at a concentration of 100 µM) | total luminescence in CYP2D6 inhibition pre-screen (CYP2D6 [4]; 100 µM): 0.45 % TL | inhibition at 100 µM (CYP2D6 [3]): 99.5% | P450-Glo Detection Reaction MEAN (total luminescence) [5]: 98.77 % TL

Oc1ccc(/C=C/c2cc(O)cc(O)c2)cc1 [Compound 24, Resveratrol, reference compound]
classification of CYP2D6 inhibition (actives / weak actives / inactives) (CYP2D6 [2]): weak actives | inhibition of firefly-luciferase (firefly-luciferase): lower micromolar range

COc1ccc2nc(C3=NC(C(=O)OCCO)CS3)sc2c1 (stereo not drawn) [ME-luciferin-EGE, methoxy-luciferin-ethylene glycol ester]
turnover number (kcat) (CYP2D6 [6]): 0.118 s⁻¹

COC1=C[C@@H]2[C@@H]3Cc4ccc(OC)c(O)c4[C@]2(CCN3C)CC1=O [Sinomenine]
Inhibitory potency (CYP2D6 [7]; at 50 µM): no inhibition | Classification of literature CYP2D6 inhibition (CYP2D6 [8]): inactive

COc1cc2c(cc1OC)[C@@H]1Cc3ccc(OC)c(OC)c3CN1CC2 [Tetrahydropalmatine]
IC50 (CYP2D6 [7]): 3.04 ± 0.26 µM | Classification of literature CYP2D6 inhibition (CYP2D6 [8]): active

CCC12C=CCN3CC[C@@]4(c5ccc(OC)cc5N(C)[C@H]4[C@@](O)(C(=O)OC)[C@@H]1OC(C)=O)[C@@H]32 (stereo partly drawn) [Vindoline]
IC50 (CYP2D6 [7]): 15.9 µM | Classification of literature CYP2D6 inhibition (CYP2D6 [8]): active
